# Measurements reported in patent US20260101915A1, “APIGENIN GLYCOSIDES FLAVOR ENHANCERS” (priority 2019, published 2026).
# Tests used:
# [1] = system: pinellic acid formation; assay: Pinellic acid concentration in whole wheat bread (LC/MS/MS)
# Method: (§1) The concentration of pinellic acid was analyzed for both control and treatment dough samples using the following method: The 15 mg of dough (or 27 mg of bread) was extracted with 1 mL 1:1 IPA/H2O (v/v) spiked with prostaglandin-F2α ([…]) ISTD. Samples were sonicated for 10 min followed by shaking using the GenoGrinder at 1000 rpm for 10 min. Samples were then diluted 1:50 and sample clean-up was carried out using a 96-well Oasis PRIME HLB plate (1 cc, 30 mg sorbent). After sample load (250 μL) and wash (750 μL, 10% acetonitrile (aq.) with 0.1% formic acid) steps, the retentate was eluted with 500 μL 90% acetonitrile (aq.) with 0.1% formic acid. Samples were further diluted to 2 mL using water with 0.1% formic acid. The standard calibration curve was prepared using 6-points ranging from 0.24 ng/ml to 500 ng/mL.
# Quantitative analysis was conducted using MRM acquisition. LC/MS/MS analysis was conducted using a Waters ACQUITY H-class UPLC system coupled with a Xevo TQ-S mass spectrometer (Waters Co.). […]
# Wheat breads were made using a modified AACC straight-dough bread-making method (AACC, 1999). […] The concentration of pinellic acid was analyzed for both control and spiking whole wheat bread samples as described for the dough analysis. […]
# [2] = system: pinellic acid formation; assay: Pinellic acid concentration in HRW Everest flour dough (LC/MS/MS); conditions: treatment dough (946.5 ng Schaftoside in 12 μL water per 15 mg HRW Everest flour) vs control; pvalue <0.05
# Method: For the dough analysis 15 mg of Hard Red Winter (“HRW”) Everest flour was weighed into 2 Eppendorf tubes containing one ¼ inch stainless steel balls, followed by the addition of 12 μL of water (4:5 water/flour ratio) to make a control dough sample. The treatment dough sample was similarly prepared to the control sample with the exception that 946.5 ng of Schaftoside in 12 μL of water (4:5 water/flour ratio) was added instead of pure water.
# as §1
# Quantitative analysis was conducted using MRM acquisition. […]
# [3] = Paired sensory difference test of whole wheat bread bitterness (20 panelists); format: in vivo; conditions: paired comparison, 20 participants, nose clips, bread crumb chewed 10 seconds; Pvalue <0.05
# Excerpt: Twenty participants were recruited by Flavor Research and Education Center (FREC) at The Ohio State University. The whole wheat bread samples (control and treatment) were cut into 3 cm×2 cm×1 cm (L×W×H) squares of crumb the day before the test and stored at room temperature in sealed 2 oz cups labeled with a 3-digit codes. Each panelist evaluated one pair of samples containing the control sample and the treatment sample. Panelists used nose clips during the evaluation in order to prevent interactions with olfactory responses. Panelists were instructed to place the entire piece of bread crumb in their mouth, chew for 10 seconds, and evaluate the maximum bitter intensity perceived. After evaluating each sample in the pair, panelists were asked to choose the most bitter sample. The serving order of each bread sample was balanced. Water was used as a palate cleanser.
# Compusense Cloud Software version 7.2 (Compusense, Guelph, Canada) was used for data collection. Approval of the sensory evaluation protocol was granted by the Ethics Committee, The Ohio State University (IRB #2019B0402). Paired Student t-tests was executed with SPSS Statistics Version 25 (International Business Machines Corp., Armonk, NY).
compound,measurement,setting,value
"O=c1cc(-c2ccc(O)cc2)oc2c([C@@H]3OC[C@H](O)[C@H](O)[C@H]3O)c(O)c([C@@H]3O[C@H](CO)[C@@H](O)[C@H](O)[C@H]3O)c(O)c12 [Schaftoside, schaftoside]",pinellic acid concentration in treatment bread,"[1]; schaftoside raised from 88.4 to 151.5 mg/kg (68.1 mg/kg flour added) prior to bread making, control bread 308.64 mg/kg, pvalue <0.05",228.6 mg/kg
same,reduction in pinellic acid formation,"[1]; treatment vs control, schaftoside added to flour prior to bread making",26%
same,reduction in pinellic acid content,[2],30%
same,perceived bitterness of treatment bread vs control bread,[3],significantly less bitter
